According to PubChem BioAssay AID190 (DTP/NCI, 2004):
“And” between values parts separate entries of the source, which are not always exact repeats. Identical values can stand only once. Inconclusive results and toxic doses are left out. Numbered stars: 1 amine (or outer) side, 2 acyl side, 3 side chain; on linkers, the order of the positions; unused ones are H or OH. Bridge positions count the residues as written; N and C are the ends. Square brackets hold non-standard residues; d marks the D form. Peptide text beside a SMILES is read from it. I, II: the chains in the order shown. Actinocin(9to1) = Cc1c2oc3c(C)ccc(C(=O)[*:1])c3nc-2c(C(=O)[*:2])c(N)c1=O; aThr = C[C@H](O)[C@H](N)C(=O)O; NMeV = CN[C@H](C(=O)O)C(C)C; Sar = CNCC(=O)O

System: AKR/Lw mice, AKR lymphoma ip, median survival T/C
Experiment: NCI In Vivo Anticancer Drug Screen. Data for tumor model Lymphoma AKR (Transplanted) (intraperitoneal) in AKR/Lw mice
Details: endpoint: median survival time, higher = longer survival
Method: The antitumor activity of compounds was measured in mice bearing transplantable tumors. Survival or tumor size were measured and the results are expressed as the measurement made in the treated group (T) divided by the measurement made in the vehicle treated control group (C). The tumor model used in this assay is Lymphoma AKR (Transplanted) (intraperitoneal) in AKR/Lw mice

[1] = dose: 100.0 mg/kg/injection, schedule: Q01DX001 (ip), vehicle: saline
[2] = dose: 200.0 mg/kg/injection, schedule: Q01DX001 (ip), vehicle: saline
[3] = dose: 400.0 mg/kg/injection, schedule: Q01DX001 (ip), vehicle: saline
[4] = dose: 100.0 mg/kg/injection, schedule: Q01DX001 (ip), vehicle: Klucel (hydroxypropylcellulose) (HPC)
[5] = dose: 200.0 mg/kg/injection, schedule: Q01DX001 (ip), vehicle: Klucel (hydroxypropylcellulose) (HPC)
[6] = dose: 400.0 mg/kg/injection, schedule: Q01DX001 (ip), vehicle: Klucel (hydroxypropylcellulose) (HPC)
[7] = dose: 100.0 mg/kg/injection, schedule: Q04DX003 (ip), vehicle: Klucel (hydroxypropylcellulose) (HPC)
[8] = dose: 200.0 mg/kg/injection, schedule: Q04DX003 (ip), vehicle: Klucel (hydroxypropylcellulose) (HPC)

## Cc1c2oc3c(C)ccc(C(=O)N[C@@H]4C(=O)N[C@H](C(C)C)C(=O)N5CCC[C@H]5C(=O)N(C)CC(=O)N(C)[C@@H](C(C)C)C(=O)O[C@H]4C)c3nc-2c(C(=O)N[C@@H]2C(=O)N[C@H](C(C)C)C(=O)N3CCC[C@H]3C(=O)N(C)CC(=O)N(C)[C@@H](C(C)C)C(=O)O[C@H]2C)c(N)c1=O (I: [aThr][dV]P[Sar][NMeV] / II: [aThr][dV]P[Sar][NMeV]; ester I:1-I:C, II:1-II:C; linker I:N-II:N via Actinocin(9to1))
dose: 0.05 mg/kg/injection, schedule: Q01DX001 (ip), vehicle: saline
  T/C: 110 % of control
dose: 0.1 mg/kg/injection, schedule: Q01DX001 (ip), vehicle: saline
  T/C: 117 % of control
dose: 0.2 mg/kg/injection, schedule: Q01DX001 (ip), vehicle: saline
  T/C: 112 % of control
dose: 1.0 micrograms/kg/injection, schedule: Q01DX015 (ip), vehicle: saline
  T/C: 94 % of control
dose: 2.0 micrograms/kg/injection, schedule: Q01DX015 (ip), vehicle: saline
  T/C: 108 % of control
dose: 4.0 micrograms/kg/injection, schedule: Q01DX015 (ip), vehicle: saline
  T/C: 105 % of control
dose: 5.0 micrograms/kg/injection, schedule: Q01DX010 (ip), vehicle: saline
  T/C: 109 % of control
dose: 6.0 micrograms/kg/injection, schedule: Q01DX015 (ip), vehicle: saline
  T/C: 105 % of control
dose: 9.0 micrograms/kg/injection, schedule: Q01DX015 (ip), vehicle: saline
  T/C: 111 % of control
dose: 10.0 micrograms/kg/injection, schedule: Q01DX010 (ip), vehicle: saline
  T/C: 119 % of control
dose: 13.0 micrograms/kg/injection, schedule: Q01DX015 (ip), vehicle: saline
  T/C: 94 % of control
dose: 20.0 micrograms/kg/injection, schedule: Q01DX015 (ip), vehicle: saline
  T/C: 119 % of control

## O=S1(=O)CC(O)C(Cl)C1 (stereo unspecified)
[1]
  T/C: 91 % of control
[2]
  T/C: 91 % of control
[3]
  T/C: 95 % of control

## O=C(O)C12CCC(CC1)C2
dose: 25.0 mg/kg/injection, schedule: Q04DX003 (ip), vehicle: saline
  T/C: 110 % of control
dose: 50.0 mg/kg/injection, schedule: Q04DX003 (ip), vehicle: saline
  T/C: 102 % of control
[1]
  T/C: 103 % of control
dose: 100.0 mg/kg/injection, schedule: Q04DX003 (ip), vehicle: saline
  T/C: 100 % of control
[2]
  T/C: 105 % of control
[3]
  T/C: 105 % of control

## CCCCCCCCC(=O)N1CC(C)OC(C)C1 (stereo unspecified)
[1]
  T/C: 100 % of control
[2]
  T/C: 94 % of control
[3]
  T/C: 100 % of control

## O=C(Nc1ccccc1)Oc1ccc(Cl)cc1
[4]
  T/C: 100 % of control
[5]
  T/C: 100 % of control
[6]
  T/C: 106 % of control

## c1ccc(CC(Cc2ccccc2)CN2CCCC2)cc1
[1]
  T/C: 94 % of control
[2]
  T/C: 88 % of control
[3]
  T/C: 123 % of control

## COc1cc2c(cc1OC)C(C#N)C2 (stereo unspecified)
[4]
  T/C: 100 % of control
[5]
  T/C: 100 % of control
[6]
  T/C: 94 % of control

## CC(=O)c1cccc(N)c1
[4]
  T/C: 93 % of control and 105 % of control
[5]
  T/C: 91 % of control
[6]
  T/C: 94 % of control and 122 % of control
dose: 600.0 mg/kg/injection, schedule: Q01DX001 (ip), vehicle: Klucel (hydroxypropylcellulose) (HPC)
  T/C: 94 % of control

## Cc1cc(NS(=O)(=O)c2ccc(N)cc2)no1
[1]
  T/C: 110 % of control
dose: 100.0 mg/kg/injection, schedule: Q04DX003 (ip), vehicle: other
  T/C: 95 % of control
[2]
  T/C: 103 % of control
dose: 200.0 mg/kg/injection, schedule: Q04DX003 (ip), vehicle: other
  T/C: 95 % of control
[3]
  T/C: 96 % of control
dose: 400.0 mg/kg/injection, schedule: Q04DX003 (ip), vehicle: other
  T/C: 95 % of control

## C[C@@H]1C[C@H]2[C@@H]3CCC4=CC(=O)C=C[C@]4(C)[C@@]3(F)[C@@H](O)C[C@]2(C)[C@@]1(O)C(=O)CO
dose: 0.25 mg/kg/injection, schedule: Q01DX004 (sc), vehicle: saline
  T/C: 121 % of control
dose: 0.5 mg/kg/injection, schedule: Q01DX004 (sc), vehicle: saline
  T/C: 103 % of control and 110 % of control
dose: 1.0 mg/kg/injection, schedule: Q01DX004 (sc), vehicle: saline
  T/C: 103 % of control and 121 % of control
dose: 1.8 mg/kg/injection, schedule: Q01DX004 (sc), vehicle: saline
  T/C: 89 % of control
dose: 2.6 mg/kg/injection, schedule: Q01DX004 (sc), vehicle: saline
  T/C: 103 % of control
dose: 4.0 mg/kg/injection, schedule: Q01DX004 (sc), vehicle: saline
  T/C: 103 % of control
dose: 4.5 mg/kg/injection, schedule: Q01DX004 (sc), vehicle: saline
  T/C: 96 % of control

## COc1cc([C@@H]2c3cc4c(cc3[C@H](O)[C@H]3COC(=O)[C@@H]23)OCO4)cc(OC)c1OC
dose: 6.0 mg/kg/injection, schedule: Q01DX009 (ip), vehicle: Klucel (hydroxypropylcellulose) (HPC)
  T/C: 110 % of control
dose: 12.0 mg/kg/injection, schedule: Q01DX009 (ip), vehicle: Klucel (hydroxypropylcellulose) (HPC)
  T/C: 120 % of control

## ClC1=C(Cl)C2(Cl)C3(Cl)C(Cl)=C(Cl)C(Cl)(C34OCCO4)C2(Cl)C12OCCO2 (stereo unspecified)
[1]
  T/C: 96 % of control
[2]
  T/C: 108 % of control
[3]
  T/C: 108 % of control

## NCCCC(=O)O
[1]
  T/C: 93 % of control
[2]
  T/C: 95 % of control
[3]
  T/C: 95 % of control

## Nc1ccccc1SC1CC(=O)N(c2ccc(I)cc2)C1=O (stereo unspecified)
[4]
  T/C: 93 % of control
[7]
  T/C: 90 % of control
[8]
  T/C: 86 % of control

## O=[N+]([O-])O.[Th]
[1]
  T/C: 113 % of control
[2]
  T/C: 109 % of control
[3]
  T/C: 104 % of control

## O=c1cc(-c2ccccc2)nc(Nc2nc3ccc([N+](=O)[O-])cc3[nH]2)[nH]1
[4]
  T/C: 96 % of control
[5]
  T/C: 110 % of control
[6]
  T/C: 96 % of control

## CCOc1ccc2nc(N)sc2c1
[4]
  T/C: 89 % of control
[5]
  T/C: 92 % of control

## NC(=S)N/N=C/c1ccc(O)cn1
dose: 3.12 mg/kg/injection, schedule: Q01DX009 (ip), vehicle: Klucel (hydroxypropylcellulose) (HPC)
  T/C: 116 % of control
dose: 12.5 mg/kg/injection, schedule: Q01DX009 (ip), vehicle: Klucel (hydroxypropylcellulose) (HPC)
  T/C: 214 % of control
dose: 20.0 mg/kg/injection, schedule: Q06HX008 (ip), vehicle: Klucel (hydroxypropylcellulose) (HPC)
  T/C: 115 % of control
dose: 20.0 mg/kg/injection, schedule: Q06HX012 (ip), vehicle: Klucel (hydroxypropylcellulose) (HPC)
  T/C: 115 % of control
dose: 25.0 mg/kg/injection, schedule: Q01DX009 (ip), vehicle: Klucel (hydroxypropylcellulose) (HPC)
  T/C: 119 % of control
dose: 25.0 mg/kg/injection, schedule: Q04DX003 (ip), vehicle: Klucel (hydroxypropylcellulose) (HPC)
  T/C: 116 % of control
dose: 30.0 mg/kg/injection, schedule: Q06HX008 (ip), vehicle: Klucel (hydroxypropylcellulose) (HPC)
  T/C: 107 % of control
dose: 31.25 mg/kg/injection, schedule: Q06HX004 (ip), vehicle: saline
  T/C: 116 % of control
dose: 31.25 mg/kg/injection, schedule: Q06HX012 (ip), vehicle: saline
  T/C: 96 % of control
dose: 31.25 mg/kg/injection, schedule: Q06HX016 (ip), vehicle: saline
  T/C: 113 % of control
dose: 40.0 mg/kg/injection, schedule: Q06HX008 (ip), vehicle: Klucel (hydroxypropylcellulose) (HPC)
  T/C: 103 % of control
dose: 40.0 mg/kg/injection, schedule: Q06HX012 (ip), vehicle: Klucel (hydroxypropylcellulose) (HPC)
  T/C: 123 % of control
dose: 50.0 mg/kg/injection, schedule: Q01DX009 (ip), vehicle: Klucel (hydroxypropylcellulose) (HPC)
  T/C: 110 % of control and 214 % of control
dose: 50.0 mg/kg/injection, schedule: Q04DX003 (ip), vehicle: Klucel (hydroxypropylcellulose) (HPC)
  T/C: 123 % of control
dose: 50.0 mg/kg/injection, schedule: Q06HX008 (ip), vehicle: Klucel (hydroxypropylcellulose) (HPC)
  T/C: 88 % of control
dose: 50.0 mg/kg/injection, schedule: Q06HX012 (ip), vehicle: Klucel (hydroxypropylcellulose) (HPC)
  T/C: 111 % of control
dose: 60.0 mg/kg/injection, schedule: Q06HX008 (ip), vehicle: Klucel (hydroxypropylcellulose) (HPC)
  T/C: 119 % of control
dose: 60.0 mg/kg/injection, schedule: Q06HX012 (ip), vehicle: Klucel (hydroxypropylcellulose) (HPC)
  T/C: 103 % of control
dose: 62.5 mg/kg/injection, schedule: Q06HX004 (ip), vehicle: saline
  T/C: 90 % of control
dose: 62.5 mg/kg/injection, schedule: Q06HX008 (ip), vehicle: saline
  T/C: 110 % of control
dose: 62.5 mg/kg/injection, schedule: Q06HX012 (ip), vehicle: saline
  T/C: 113 % of control
dose: 62.5 mg/kg/injection, schedule: Q06HX016 (ip), vehicle: saline
  T/C: 120 % of control
dose: 75.0 mg/kg/injection, schedule: Q01DX009 (ip), vehicle: Klucel (hydroxypropylcellulose) (HPC)
  T/C: 173 % of control
[7]
  T/C: 120 % of control
dose: 125.0 mg/kg/injection, schedule: Q06HX008 (ip), vehicle: saline
  T/C: 96 % of control
dose: 125.0 mg/kg/injection, schedule: Q06HX012 (ip), vehicle: saline
  T/C: 86 % of control
[8]
  T/C: 123 % of control
